Source: ChEMBL document CHEMBL3352679, “Structure and evaluation of antibacterial and antitubercular properties of new basic and heterocyclic 3-formylrifamycin SV derivatives obtained via 'click chemistry' approach” (Eur J Med Chem, 2014)
Converted amounts (≈) assume the structure as drawn.

Legend:
[1] = test system: Enterococcus faecalis; test: Antibacterial activity against Enterococcus faecalis ATCC 19433 after 18 hrs by serial microdilution method; assay type: functional; conditions: ATCC 19433, 18 h
[2] = Solubility in water at pH 7 and 25 degC by UV-vis spectrophotometry; assay type: physicochemical
[3] = test system: Staphylococcus aureus; test: Antibacterial activity against Staphylococcus aureus ATCC 25923 after 18 hrs by serial microdilution method; assay type: functional; conditions: ATCC 25923, 18 h
[4] = test system: Staphylococcus epidermidis; test: Antibacterial activity against Staphylococcus epidermidis ATCC 49134 after 18 hrs by serial microdilution method; assay type: functional; conditions: ATCC 49134, 18 h
[5] = test system: Candida albicans; test: Antifungal activity against Candida albicans ATCC 10231 after 18 hrs by serial microdilution method; assay type: functional; conditions: ATCC 10231, 18 h
[6] = test system: Staphylococcus epidermidis; test: Antibacterial activity against Staphylococcus epidermidis ATCC 12228 after 18 hrs by serial microdilution method; assay type: functional; conditions: ATCC 12228, 18 h
[7] = test system: Mycobacterium tuberculosis; test: Antituberculosis activity against Mycobacterium tuberculosis H37Rv after 7 days by serial two fold dilution method; assay type: functional; conditions: 168 h
[8] = test system: Staphylococcus aureus; test: Antibacterial activity against Staphylococcus aureus ATCC 6538 after 18 hrs by serial microdilution method; assay type: functional; conditions: ATCC 6538, 18 h
[9] = test system: Staphylococcus aureus; test: Antibacterial activity against Staphylococcus aureus ATCC 4163 after 18 hrs by serial microdilution method; assay type: functional; conditions: ATCC 4163, 18 h
[10] = test system: Trichophyton rubrum; test: Antifungal activity against Trichophyton rubrum ATCC 28188 after 18 hrs by serial microdilution method; assay type: functional; conditions: ATCC 28188, 18 h
[11] = test system: Escherichia coli; test: Antibacterial activity against Escherichia coli ATCC 10538 after 18 hrs by serial microdilution method; assay type: functional; conditions: ATCC 10538, 18 h
[12] = Octanol-water partition coefficient, log P of the compound; assay type: physicochemical
[13] = test system: Salmonella enterica subsp. enterica serovar Abony; test: Antibacterial activity against Salmonella abony NCTC 6017 after 18 hrs by serial microdilution method; assay type: functional; conditions: NCTC 6017, 18 h

Structure (SMILES)	MIC [1] [µg/mL]	solubility [2] [µg/mL]	MIC [3] [µg/mL]	MIC [4] [µg/mL]	MIC [5] [µg/mL]	MIC [6] [µg/mL]	MIC [7] [µg/mL]	MIC [8] [µg/mL]	MIC [9] [µg/mL]	MIC [10] [µg/mL]	MIC [11] [µg/mL]	logP [12]	MIC [13] [µg/mL]
CCCc1cn(CCNCc2c3c(O)c4c(O)c(C)c5c(c4c2O)C(=O)[C@@](C)(O/C=C/[C@H](OC)[C@@H](C)[C@@H](OC(C)=O)[C@H](C)[C@H](O)[C@H](C)[C@@H](O)[C@@H](C)/C=C/C=C(/C)C(=O)N3)O5)nn1	> 1	< 10	> 1	0.5 (≈ 0.579 µM)	> 1	0.5 (≈ 0.579 µM)	1 (≈ 1.16 µM)	1 (≈ 1.16 µM)	1 (≈ 1.16 µM)	> 1	> 1	2.14	> 1
CCCCCc1cn(CCCN2Cc3c4c(O)c5c(O)c(C)c6c(c5c3O)C(=O)[C@@](C)(O/C=C/[C@H](OC)[C@@H](C)[C@@H](OC(C)=O)[C@H](C)[C@H](O)[C@H](C)[C@@H](O)[C@@H](C)/C=C/C=C(/C)C2=N4)O6)nn1	> 1	< 10	> 1	> 1	> 1	> 1	1 (≈ 1.13 µM)	> 1	1 (≈ 1.13 µM)	> 1	> 1	4.47	> 1
CO[C@H]1/C=C/O[C@@]2(C)Oc3c(C)c(O)c4c(O)c(c(CNCCN5CCCC5)c(O)c4c3C2=O)NC(=O)/C(C)=C\C=C\[C@H](C)[C@H](O)[C@@H](C)[C@@H](O)[C@@H](C)[C@H](OC(C)=O)[C@@H]1C	1 (≈ 1.21 µM)	240 (≈ 291 µM)	1 (≈ 1.21 µM)	0.5 (≈ 0.607 µM)	1 (≈ 1.21 µM)	0.5 (≈ 0.607 µM)	0.5 (≈ 0.607 µM)	1 (≈ 1.21 µM)	1 (≈ 1.21 µM)	1 (≈ 1.21 µM)	1 (≈ 1.21 µM)	1.55	1 (≈ 1.21 µM)
CO[C@H]1/C=C/O[C@@]2(C)Oc3c(C)c(O)c4c(O)c(c(CNCCCN5CCN(CCCNCc6c7c(O)c8c(O)c(C)c9c(c8c6O)C(=O)[C@@](C)(O/C=C/[C@H](OC)[C@@H](C)[C@@H](OC(C)=O)[C@H](C)[C@H](O)[C@H](C)[C@@H](O)[C@@H](C)/C=C/C=C(/C)C(=O)N7)O9)CC5)c(O)c4c3C2=O)NC(=O)/C(C)=C\C=C\[C@H](C)[C@H](O)[C@@H](C)[C@@H](O)[C@@H](C)[C@H](OC(C)=O)[C@@H]1C	> 1	< 10	> 1	> 1	> 1	> 1	> 1	> 1	> 1	> 1	> 1	3.83	> 1
CO[C@H]1/C=C/O[C@@]2(C)Oc3c(C)c(O)c4c(O)c(c(/C=N/N5CCN(C)CC5)c(O)c4c3C2=O)NC(=O)/C(C)=C\C=C\[C@H](C)[C@H](O)[C@@H](C)[C@@H](O)[C@@H](C)[C@H](OC(C)=O)[C@@H]1C [RIFAMPIN]	1 (≈ 1.22 µM)	–	0.016 (≈ 0.0194 µM)	0.004 (≈ 0.00486 µM)	> 1	0.004 (≈ 0.00486 µM)	0.005 (≈ 0.00608 µM)	0.008 (≈ 0.00972 µM)	0.008 (≈ 0.00972 µM)	> 1	> 1	1.66	> 1
CO[C@H]1/C=C/O[C@@]2(C)Oc3c(C)c(O)c4c(O)c(c(CNCCN(C)C)c(O)c4c3C2=O)NC(=O)/C(C)=C\C=C\[C@H](C)[C@H](O)[C@@H](C)[C@@H](O)[C@@H](C)[C@H](OC(C)=O)[C@@H]1C	> 1	320 (≈ 401 µM)	> 1	0.5 (≈ 0.627 µM)	> 1	0.5 (≈ 0.627 µM)	> 1	1 (≈ 1.25 µM)	1 (≈ 1.25 µM)	> 1	> 1	1.48	> 1
CO[C@H]1/C=C/O[C@@]2(C)Oc3c(C)c(O)c4c(O)c(c(C=O)c(O)c4c3C2=O)NC(=O)/C(C)=C\C=C\[C@H](C)[C@H](O)[C@@H](C)[C@@H](O)[C@@H](C)[C@H](OC(C)=O)[C@@H]1C	> 1	100 (≈ 138 µM)	> 1	> 1	> 1	> 1	> 1	> 1	> 1	> 1	> 1	1.71	> 1
CO[C@H]1/C=C/O[C@@]2(C)Oc3c(C)c(O)c4c(O)c(c(CNCc5cn(CN6C(=O)c7ccccc7C6=O)nn5)c(O)c4c3C2=O)NC(=O)/C(C)=C\C=C\[C@H](C)[C@H](O)[C@@H](C)[C@@H](O)[C@@H](C)[C@H](OC(C)=O)[C@@H]1C	> 1	< 10	> 1	0.5 (≈ 0.517 µM)	> 1	0.5 (≈ 0.517 µM)	0.25 (≈ 0.259 µM)	1 (≈ 1.03 µM)	1 (≈ 1.03 µM)	> 1	> 1	2.24	> 1
CO[C@H]1/C=C/O[C@@]2(C)Oc3c(C)c(O)c4c(O)c(c(CNC5CCN(Cc6ccccc6)CC5)c(O)c4c3C2=O)NC(=O)/C(C)=C\C=C\[C@H](C)[C@H](O)[C@@H](C)[C@@H](O)[C@@H](C)[C@H](OC(C)=O)[C@@H]1C	> 1	< 10	0.25 (≈ 0.278 µM)	0.25 (≈ 0.278 µM)	> 1	0.25 (≈ 0.278 µM)	0.005 (≈ 0.00556 µM)	0.25 (≈ 0.278 µM)	0.25 (≈ 0.278 µM)	> 1	> 1	3.25	> 1
CO[C@H]1/C=C/O[C@@]2(C)Oc3c(C)c(O)c4c(O)c5c(c(O)c4c3C2=O)CN(Cc2cn(CN3C(=O)c4ccccc4C3=O)nn2)C(=N5)/C(C)=C\C=C\[C@H](C)[C@H](O)[C@@H](C)[C@@H](O)[C@@H](C)[C@H](OC(C)=O)[C@@H]1C	> 1	< 10	> 1	> 1	> 1	> 1	0.5 (≈ 0.527 µM)	> 1	1 (≈ 1.05 µM)	> 1	> 1	3.26	> 1
CCCCCc1cn(CCCNCc2c3c(O)c4c(O)c(C)c5c(c4c2O)C(=O)[C@@](C)(O/C=C/[C@H](OC)[C@@H](C)[C@@H](OC(C)=O)[C@H](C)[C@H](O)[C@H](C)[C@@H](O)[C@@H](C)/C=C/C=C(/C)C(=O)N3)O5)nn1	> 1	< 10	> 1	0.5 (≈ 0.552 µM)	> 1	0.5 (≈ 0.552 µM)	0.5 (≈ 0.552 µM)	1 (≈ 1.1 µM)	1 (≈ 1.1 µM)	> 1	> 1	3.42	> 1
CO[C@H]1/C=C/O[C@@]2(C)Oc3c(C)c(O)c4c(O)c(c(CNCCCn5ccnc5)c(O)c4c3C2=O)NC(=O)/C(C)=C\C=C\[C@H](C)[C@H](O)[C@@H](C)[C@@H](O)[C@@H](C)[C@H](OC(C)=O)[C@@H]1C	> 1	330 (≈ 395 µM)	1 (≈ 1.2 µM)	0.25 (≈ 0.299 µM)	> 1	0.5 (≈ 0.599 µM)	1 (≈ 1.2 µM)	0.5 (≈ 0.599 µM)	0.5 (≈ 0.599 µM)	> 1	> 1	1.78	> 1
CO[C@H]1/C=C\O[C@@]2(C)Oc3c(C)c(O)c4c(O)c(c(CNC5CCN(Cc6ccccc6)CC5)c(O)c4c3C2=O)NC(=O)/C(C)=C\C=C/[C@H](C)[C@H](O)[C@@H](C)[C@@H](O)[C@@H](C)[C@H](OC(C)=O)[C@@H]1C	–	150 (≈ 167 µM)	0.25 (≈ 0.278 µM)	0.03 (≈ 0.0333 µM)	–	0.06 (≈ 0.0667 µM)	0.005 (≈ 0.00556 µM)	0.125 (≈ 0.139 µM)	0.125 (≈ 0.139 µM)	–	–	2.05	–
CO[C@H]1/C=C/O[C@@]2(C)Oc3c(C)c(O)c4c(O)c(c(CNCCCN5CCCC5)c(O)c4c3C2=O)NC(=O)/C(C)=C\C=C\[C@H](C)[C@H](O)[C@@H](C)[C@@H](O)[C@@H](C)[C@H](OC(C)=O)[C@@H]1C	> 1	240 (≈ 286 µM)	1 (≈ 1.19 µM)	0.25 (≈ 0.298 µM)	> 1	0.5 (≈ 0.597 µM)	0.5 (≈ 0.597 µM)	0.5 (≈ 0.597 µM)	0.5 (≈ 0.597 µM)	> 1	> 1	2.04	> 1
CCCc1cn(CCN2Cc3c4c(O)c5c(O)c(C)c6c(c5c3O)C(=O)[C@@](C)(O/C=C/[C@H](OC)[C@@H](C)[C@@H](OC(C)=O)[C@H](C)[C@H](O)[C@H](C)[C@@H](O)[C@@H](C)/C=C/C=C(/C)C2=N4)O6)nn1	> 1	< 10	> 1	> 1	> 1	> 1	1 (≈ 1.18 µM)	> 1	1 (≈ 1.18 µM)	> 1	> 1	3.13	> 1
